What all share (test): SILAC RP-ABPP
Common to all, as to format: cell-based

In assay [1] the target is T1, ALDOC Fructosebisphosphate aldolase C (P09972) (Homo sapiens, UniProt P09972).
T1 construct: shared by both the endogenous and recombinant forms of these proteins; endogenous in cells; host or cells: HEK293T and MDA-MB-231
T1 sequence (P09972 1-364): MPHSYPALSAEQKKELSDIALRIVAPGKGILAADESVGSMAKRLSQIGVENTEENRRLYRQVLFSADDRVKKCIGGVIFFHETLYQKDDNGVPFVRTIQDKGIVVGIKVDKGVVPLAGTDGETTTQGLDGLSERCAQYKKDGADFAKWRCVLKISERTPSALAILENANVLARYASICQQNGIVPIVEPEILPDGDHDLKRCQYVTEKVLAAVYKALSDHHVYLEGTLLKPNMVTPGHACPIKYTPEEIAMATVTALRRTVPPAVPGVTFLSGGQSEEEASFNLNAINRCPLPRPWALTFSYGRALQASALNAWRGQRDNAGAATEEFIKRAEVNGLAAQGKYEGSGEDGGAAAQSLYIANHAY
The note with it: SILAC H/L, HEK293T. In outline:
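Heavy SILAC HEK293T or MDA-MB-231 cells were treated with hydrazine probe 1 (3 mM, 0.5 h); light cells received non-clickable hydrazine 3 at the same concentration (enrichment) or probe plus 10× competitor 3 (competition). Lysates were mixed, clicked to biotin-azide and analysed by LC-MS; values are median heavy:light peptide ratios averaged over ≥3 replicates.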

Assay [2] addresses T2, APLP2 Amyloidlike protein 2 (Q06481) (Homo sapiens, UniProt Q06481).
T2 construct: shared by both the endogenous and recombinant forms of these proteins; endogenous in cells; host or cells: HEK293T and MDA-MB-231
The following applies: SILAC H/L.

Assay [3] concerns the target T3, TPP1 Tripeptidylpeptidase 1 (O14773) (Homo sapiens, UniProt O14773).
T3 construct: In Situ Labelling of Cells with Hydrazine Probes for MS Experiments; endogenous in cells; host or cells: HEK293T and MDA-MB-231
T3 sequence (O14773 196-563): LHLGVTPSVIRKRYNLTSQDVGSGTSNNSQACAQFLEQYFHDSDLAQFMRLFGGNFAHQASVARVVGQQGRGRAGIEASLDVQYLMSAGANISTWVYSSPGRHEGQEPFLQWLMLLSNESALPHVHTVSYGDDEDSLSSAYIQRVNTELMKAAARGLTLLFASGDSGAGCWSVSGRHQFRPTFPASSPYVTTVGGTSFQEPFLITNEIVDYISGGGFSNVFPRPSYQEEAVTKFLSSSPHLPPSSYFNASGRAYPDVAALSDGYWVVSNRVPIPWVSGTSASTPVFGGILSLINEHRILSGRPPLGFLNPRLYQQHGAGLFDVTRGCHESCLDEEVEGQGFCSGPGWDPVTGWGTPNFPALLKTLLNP
The note with it: SILAC H/L, MDA-MB-231.

The target of assay [4] is T4, CTSB Cathepsin B (P07858) (Homo sapiens, UniProt P07858).
T4 construct: In Situ Labelling of Cells with Hydrazine Probes for MS Experiments; endogenous in cells; host or cells: HEK293T and MDA-MB-231
The note with it: SILAC H/L, MDA-MB-231.

Structures are written as SMILES.

T2 sequence (Q06481 32-763): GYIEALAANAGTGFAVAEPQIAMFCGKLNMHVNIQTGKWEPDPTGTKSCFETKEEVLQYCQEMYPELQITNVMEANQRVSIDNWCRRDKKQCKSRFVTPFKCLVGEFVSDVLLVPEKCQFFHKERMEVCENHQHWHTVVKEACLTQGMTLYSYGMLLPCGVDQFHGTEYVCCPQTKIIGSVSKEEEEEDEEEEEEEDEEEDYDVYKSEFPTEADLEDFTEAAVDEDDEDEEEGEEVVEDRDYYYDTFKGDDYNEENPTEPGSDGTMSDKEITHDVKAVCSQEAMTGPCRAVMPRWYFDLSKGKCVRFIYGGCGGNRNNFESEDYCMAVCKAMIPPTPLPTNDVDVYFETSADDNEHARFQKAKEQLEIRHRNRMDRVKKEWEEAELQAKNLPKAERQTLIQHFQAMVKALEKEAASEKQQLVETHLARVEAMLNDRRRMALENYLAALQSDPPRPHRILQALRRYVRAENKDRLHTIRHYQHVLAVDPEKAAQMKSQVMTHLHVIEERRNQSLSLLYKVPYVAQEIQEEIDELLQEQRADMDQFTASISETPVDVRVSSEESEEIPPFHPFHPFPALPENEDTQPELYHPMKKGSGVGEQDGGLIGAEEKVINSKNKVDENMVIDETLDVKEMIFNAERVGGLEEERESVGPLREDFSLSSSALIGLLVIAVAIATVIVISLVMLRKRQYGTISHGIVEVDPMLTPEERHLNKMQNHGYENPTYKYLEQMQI

With `C#CCCNC(=O)c1ccc(NN)cc1.Cl` [probe 2, N-(but-3-yn-1-yl)-4-hydrazinylbenzamide hydrochloride], the enrichment ratioavg is 14 in assay [1] (probe 2 1 mM 0.5 h vs probe 4); 20 in assay [2] (probe 2 1 mM 0.5 h vs probe 4, single experiment, cell line not given); 18 in assay [3] (probe 2 1 mM 0.5 h vs probe 4); 14 in assay [4] (probe 2 1 mM 0.5 h vs probe 4). Moreover, the competition ratioavg in assay [1] (probe 2 vs probe 2+10x probe 4) stood at 5; in assay [3] (probe 2 vs probe 2+10x probe 4), 4; in assay [4] (probe 2 vs probe 2+10x probe 4), 5.

As to `C#CCNN.Cl` [probe 1, prop-2-yn-1-ylhydrazine hydrochloride], the enrichment ratioavg is given as 16 in assay [1] (probe 1 3 mM 0.5 h vs probe 3); 19 in assay [2] (probe 1 3 mM 0.5 h vs probe 3, MDA-MB-231); 15 in assay [3] (probe 1 3 mM 0.5 h vs probe 3); 9 in assay [4] (probe 1 3 mM 0.5 h vs probe 3). Moreover, the competition ratioavg was 3 in assay [1] (probe 1 vs probe 1+10x probe 3); 7 in assay [2] (probe 1 vs probe 1+10x probe 3, MDA-MB-231); 3 in assay [3] (probe 1 vs probe 1+10x probe 3); 3 in assay [4] (probe 1 vs probe 1+10x probe 3).
